US10626094B2 (La Jolla Institute of Allergy & Immunology, priority 2014, dated 2020)

Molecular target: LMPTP-A (Low Molecular Weight Protein Tyrosine Phosphatase-A) enzyme (Homo sapiens (Human), UniProt P24666)
Assay: LMPTP primary screening / LMPTP (OMFP) enzyme inhibition assay, fluorescence intensity
Format: biochemical
Conditions: for IC50: LMPTP-A, OMFP substrate, method of Example 2, read-out: IC50
Method in brief: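 Single-concentration screen, test compounds 20 μM final, […]. Enzyme (0.625 nM) and OMFP (400 μM) react 50 min at room temp, dark, in Bis-Tris buffer pH 6.0 containing DTT 1 mM and Triton X-100 0.01%. Read-out: fluorescence intensity.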

Sequence of LMPTP-A (Low Molecular Weight Protein Tyrosine Phosphatase-A) enzyme (P24666 whole entry): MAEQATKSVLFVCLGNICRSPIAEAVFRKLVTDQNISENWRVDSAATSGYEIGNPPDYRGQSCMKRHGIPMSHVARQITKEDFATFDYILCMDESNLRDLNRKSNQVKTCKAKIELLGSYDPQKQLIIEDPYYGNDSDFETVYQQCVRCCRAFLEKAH

IC50 [µM] | LMPTP (OMFP) potency in words (SAR discussion) | Compound
0.801 to 5 |  | COc1ccc(-c2cc(NCc3cccc(C#N)c3)c3ccccc3n2)cc1 [Compound G82, 3-({[2-(4-methoxyphenyl)-4-quinolyl]amino}methyl)benzenecarbonitrile]
> 5 |  | CN(C)Cc1ccc(Nc2cc(-c3cc(C(F)(F)F)cc(C(F)(F)F)c3)nc3ccccc23)cc1 [Compound I47, {[4-({2-[3,5-bis(trifluoromethyl)phenyl](4-quinolyl)}amino)phenyl]methyl}dimethylamine]
> 5 |  | C[N+]1(C)CCC(Cc2ccccc2Nc2cc(-c3cc(C(F)(F)F)cc(C(F)(F)F)c3)nc3ccccc23)CC1 [Compound I48, {2-[(1,1-dimethyl(4-piperidyl))methyl]phenyl} {2-[3,5-bis(trifluoromethyl)phenyl](4-quinolyl)}amine]
> 5 |  | FC(F)(F)c1cc(-c2cc(Nc3cccc(CC4CCNCC4)c3)c3ccccc3n2)cc(C(F)(F)F)c1 [Compound I52, {2-[3,5-bis(trifluoromethyl)phenyl](4-quinolyl)}[3-(4-piperidylmethyl)phenyl]amine]
> 5 |  | O=S(=O)(c1ccccc1-c1cc(NCCCN2CCCCC2)c2ccccc2n1)N1CCOCC1 [Compound I233]
0.801 to 5 |  | Fc1ccccc1-c1cc(NCCCN2CCCCC2)c2ccccc2n1 [Compound G6, [2-(2-Fluoro-phenyl)-quinolin-4-yl]-(3-piperidin-1-yl-propyl)-amine]
> 5 |  | Cc1cc(NCCCN2CCCCC2)c2ccccc2n1 [Compound I151]
 | inactive | CSCCCN1CCCCC1 [Entry 64]
0.2 to 0.8 |  | CCN(CC)CCCNC(=O)c1ccc(-c2cc(NCCCN3CCCCC3)c3ccccc3n2)cc1 [Compound I190]
0.801 to 5 |  | (2-morpholin-4-ylethyl)(2-phenyl(4-quinolyl))amine [Compound I180]
0.801 to 5 |  | N-cyclopropyl(4-{4-[(3-piperidylpropyl)amino](2-quinolyl)}phenyl)carboxamide [Compound I70]
0.801 to 5 |  | FC(F)(F)c1ccc(-c2cc(NCCCC3CCCNC3)c3ccccc3n2)c(Cl)c1 (stereo not shown) [Compound I120]
0.801 to 5 |  | Clc1cccc(-c2cc(Nc3cccc(CC4CCNCC4)c3)c3ccccc3n2)c1 [Compound I19, [2-(3-chlorophenyl)(4-quinolyl)][3-(4-piperidylmethyl)phenyl]amine]
0.801 to 5 |  | methyl 3-{4-[(3-piperidylpropyl)amino]-2-quinolyl}benzoate [Compound I155]
0.801 to 5 |  | COc1ccc(-c2cc(NCc3ccc(CN4CCOCC4)cc3)c3ccccc3n2)cc1 [Compound I211, [2-(4-methoxyphenyl)(4-quinolyl)]{[4-(morpholin-4-ylmethyl)phenyl]methyl}amine]
> 5 |  | NC(=O)c1ccc(-c2cc(Nc3ccc(CC4CCNCC4)cc3)c3ccccc3n2)cc1 [Compound I220, 4-(4-{[4-(4-piperidylmethyl)phenyl]amino}-2-quinolyl)benzamide]
0.801 to 5 |  | CN(C)c1cc(-c2ccccc2C(F)(F)F)nc2ccccc12 [Compound D2, N,N-dimethyl-2-(2-(trifluoromethyl)phenyl)quinolin-4-amine]
0.2 to 0.8 |  | FC(F)(F)Oc1ccccc1-c1cc(NCCCC2CCCNC2)c2ccccc2n1 (stereo not shown) [Compound I166, (3-piperidylpropyl){2-[2-(trifluoromethoxy)phenyl](4-quinolyl)}amine]
0.801 to 5 |  | Fc1ccc(-c2ccc(-c3cc(NCCCN4CCCCC4)c4ccccc4n3)cc2)cc1 [Compound I225]
0.801 to 5 |  | Fc1cccc(-c2cc(NCCCN3CCCCC3)c3ccccc3n2)n1 [Compound I97]
0.801 to 5 |  | c1ccc2sc(-c3cc(NCCCN4CCCCC4)c4ccccc4n3)cc2c1 [Compound I140]
0.801 to 5 |  | COc1ccc(-c2cc(NCc3ccccc3OC)c3ccccc3n2)cc1 [Compound G77, [2-(4-methoxyphenyl)(4-quinolyl)][(2-methoxyphenyl)methyl]amine]
